# Measurements from the supplement of paper PMC10307832.
# Experiments:
# Test in all cases: relative viability (nuclei count vs DMSO), 5 days (fraction); higher = more cells survive
# Bemcentinib + Decitabine = compound: Nc1nc(Nc2ccc3c(c2)CC[C@@H](N2CCCC2)CC3)nn1-c1cc2c(nn1)-c1ccccc1CCC2 [Bemcentinib] + Nc1ncn([C@H]2C[C@H](O)[C@@H](CO)O2)c(=O)n1 [Decitabine] (partner 2 µM)
# In short: (§1)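 Relative viability was taken as the ratio of nuclei in treated wells to nuclei in vehicle wells. Lung cancer cell lines in 1536-well plates received compounds by pin tool one day after seeding, either one drug alone or a fixed anchor-drug dose plus five library-drug doses (not always all listed) in √10 steps. Nuclei were counted on 4× images after 5 days of treatment, and values are medians of duplicate plates.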
# Axitinib + Olaparib = compound: CNC(=O)c1ccccc1Sc1ccc2c(/C=C/c3ccccn3)n[nH]c2c1 [Axitinib] + O=C(c1cc(Cc2n[nH]c(=O)c3ccccc23)ccc1F)N1CCN(C(=O)C2CC2)CC1 [Olaparib] (partner 8 µM)
# In short: as §1
# Bemcentinib + Lapatinib = compound: Nc1nc(Nc2ccc3c(c2)CC[C@@H](N2CCCC2)CC3)nn1-c1cc2c(nn1)-c1ccccc1CCC2 [Bemcentinib] + CS(=O)(=O)CCNCc1ccc(-c2ccc3ncnc(Nc4ccc(OCc5cccc(F)c5)c(Cl)c4)c3c2)o1 [Lapatinib] (partner 2 µM)
# In short: as §1
# Axitinib + Luminespib = compound: CNC(=O)c1ccccc1Sc1ccc2c(/C=C/c3ccccn3)n[nH]c2c1 [Axitinib] + CCNC(=O)c1noc(-c2cc(C(C)C)c(O)cc2O)c1-c1ccc(CN2CCOCC2)cc1 [Luminespib] (partner 0.01 µM)
# In short: as §1
Cell Line,relative viability (Bemcentinib + Decitabine; first compound 0.04 µM),relative viability (Bemcentinib + Decitabine; first compound 0.1265 µM),relative viability (Bemcentinib + Decitabine; first compound 0.4 µM),relative viability (Bemcentinib + Decitabine; first compound 1.265 µM),relative viability (Bemcentinib + Decitabine; first compound 4 µM),relative viability (Axitinib + Olaparib; first compound 0.005 µM),relative viability (Axitinib + Olaparib; first compound 0.01581 µM),relative viability (Axitinib + Olaparib; first compound 0.05 µM),relative viability (Axitinib + Olaparib; first compound 0.1581 µM),relative viability (Axitinib + Olaparib; first compound 0.5 µM),relative viability (Bemcentinib + Lapatinib; first compound 0.04 µM),relative viability (Bemcentinib + Lapatinib; first compound 0.1265 µM),relative viability (Bemcentinib + Lapatinib; first compound 0.4 µM),relative viability (Bemcentinib + Lapatinib; first compound 1.265 µM),relative viability (Bemcentinib + Lapatinib; first compound 4 µM),relative viability (Axitinib + Luminespib; first compound 0.005 µM),relative viability (Axitinib + Luminespib; first compound 0.01581 µM),relative viability (Axitinib + Luminespib; first compound 0.05 µM),relative viability (Axitinib + Luminespib; first compound 0.1581 µM),relative viability (Axitinib + Luminespib; first compound 0.5 µM)
HCC-78,0.691,0.655,0.636,0.655,0.637,0.925,0.814,0.674,0.776,0.813,0.113,0.443,0.693,0.281,0.0037,,,,,
HCC-366,0.335,0.362,0.395,0.369,0.341,0.362,0.33,0.422,0.304,0.37,0.994,1.16,1.51,1.06,1.03,,,,,
HCC-827,0.34,0.347,0.316,0.292,0.332,0.617,0.566,0.66,0.62,0.812,0.179,0.206,0.216,0.226,0.194,0.599,0.514,0.325,0.728,0.459
HOP-62,0.25,0.198,0.255,0.207,0.216,0.392,0.443,0.321,0.569,0.682,1.17,0.977,,1.05,0.959,0.934,0.798,0.908,0.885,0.85
IA-LM,,,,,,1.07,0.855,0.821,0.808,0.832,0.661,0.814,1.13,0.832,0.775,,,,,
LC-2-ad,0.79,0.724,0.824,0.817,0.756,0.735,0.693,0.738,0.708,0.76,0.921,1.09,0.979,0.943,0.995,1.01,1.13,1.04,0.897,0.956
LCLC-97TM1,0.248,0.212,0.217,0.207,0.252,0.433,0.436,0.446,0.37,0.496,0.777,1.11,,1.12,0.941,0.671,0.826,0.663,0.672,0.722
LCLC-103H,0.739,0.735,0.738,0.812,0.764,0.803,0.784,0.753,0.881,0.824,,,,,,0.988,0.917,0.978,0.924,0.994
LK-2,0.214,0.374,0.342,0.23,0.313,0.65,0.609,0.762,0.712,0.545,0.869,0.908,1.07,0.838,0.891,0.185,0.146,0.19,0.185,0.18
LOU-NH91,0.78,0.82,0.837,0.863,0.801,0.942,0.745,0.951,0.893,0.934,0.714,0.79,0.789,0.742,0.756,0.325,0.377,0.379,0.349,0.331
LU99A,0.918,0.882,0.899,0.975,0.987,0.272,0.287,0.273,0.286,0.304,0.961,1.26,1.15,0.961,0.893,0.239,0.265,0.241,0.302,0.303
NCI-H441,0.208,0.276,0.218,0.236,0.255,0.675,0.499,0.539,0.503,0.453,,,,,,0.305,0.325,0.313,0.456,0.576
NCI-H522,0.759,0.789,0.657,0.558,0.619,0.61,0.639,0.641,0.562,0.748,,,,,,1.28,1.18,1.02,0.998,1.02
NCI-H1299,,,,,,0.983,0.944,0.976,0.983,0.975,0.991,0.995,0.962,0.938,0.978,,,,,
NCI-H1563,,,,,,,,,,,0.907,0.887,1.04,0.976,0.958,0.401,0.594,0.487,0.549,0.446
NCI-H1623,,,,,,,,,,,,,,,,0.519,0.602,0.444,0.538,0.481
NCI-H1648,0.411,0.413,0.483,0.569,0.43,0.616,0.975,0.554,0.979,0.958,,,,,,,,,,
NCI-H1703,,,,,,0.392,0.225,0.243,0.216,0.201,,1.18,1.24,1.17,1.13,,,,,
NCI-H2228,,,,,,0.636,0.706,0.713,0.466,0.91,,1.39,1.18,1.08,1.18,0.142,0.118,0.147,0.174,0.138
NCI-H2342,0.746,0.768,0.771,0.73,0.827,0.51,0.464,0.421,0.528,0.44,,,,,,0.896,0.763,0.59,0.756,0.726
SW 900,0.406,0.479,0.432,0.428,0.398,1.02,,1.07,0.892,0.927,,,,,,0.167,0.162,0.159,0.185,0.18
